From ChEMBL document CHEMBL3407452, “Linear and branched alkyl-esters and amides of gallic acid and other (mono-, di- and tri-) hydroxy benzoyl derivatives as promising anti-HCV inhibitors” (Eur J Med Chem, 2015) come the findings set out here.

In data set [1] the test system is Human immunodeficiency virus 1. Kind of data set: Antiviral activity against HIV1 3B infected in human CEM cells assessed as reduction in virus-induced cytopathicity after 4 to 5 days by microscopy based syncytium cell formation assay. The data set is classed as functional, organism-based, CCRF-CEM.
Another data set relates to Hepatitis C virus. Kind of data set: Antiviral activity against HCV genotype 1b I389luc-ubi-neo/NS3-3'/5.1 replicons infected in human Huh5-2 HCV subgenomic replicon-containing cells assessed as reduction in virus replication after 3 days by luciferase reporter gene assay. The data set is classed as functional, Hepacivirus hominis. The following applies: for EC90: Hepacivirus hominis.

Data set [2] concerns Human immunodeficiency virus 2. Kind of data set: Antiviral activity against HIV2 ROD infected in human CEM cells assessed as reduction in virus-induced cytopathicity after 4 to 5 days by microscopy based syncytium cell formation assay. The data set is classed as functional, organism-based, ISOLATE ROD, CCRF-CEM.
For another data set, the system named is Chikungunya virus. Kind of data set: Antiviral activity against chikungunya virus. The data set is classed as functional.
The subject of a further data set is Vaccinia virus. Nature of the data set: Antiviral activity against vaccinia virus. The data set is classed as functional, organism-based. The following applies: Orthopoxvirus vaccinia.
The next data set relates to Felid alphaherpesvirus 1. Kind of data set: Antiviral activity against feline herpesvirus. The data set is classed as functional, organism-based.
A further data set deals with Sindbis virus. Kind of data set: Antiviral activity against sindbis virus. The data set is classed as functional, organism-based.
The test system of the next data set is Influenza A virus. Kind of data set: Antiviral activity against influenza A virus (H1N1). The data set is classed as functional, organism-based.
A further data set deals with Feline coronavirus. Nature of the data set: Antiviral activity against feline coronavirus. The data set is classed as functional, organism-based.
The next data set concerns Human respirovirus 3. Kind of data set: Antiviral activity against human parainfluenza virus 3. The data set is classed as functional, organism-based.
Data set [3] concerns Vesicular stomatitis virus. Nature of the data set: Antiviral activity against vesicular stomatitis virus. The data set is classed as functional, organism-based.
A further data set relates to Punta Toro virus. Nature of the data set: Antiviral activity against punta toro virus. The data set is classed as functional, organism-based.
The next data set relates to Reovirus sp. Nature of the data set: Antiviral activity against reovirus. The data set is classed as functional, organism-based.
Data set [4] is described as follows: Cytotoxicity against human CEM cells assessed as inhibition of cell proliferation. The data set is classed as cell-based. The following applies: CEM cells (CCRF-CEM).
The subject of another data set is Influenza A virus H3N2. Kind of data set: Antiviral activity against influenza A virus H3N2. The data set is classed as functional, organism-based.
The test system of data set [5] is Respiratory syncytial virus. Kind of data set: Antiviral activity against RSV. The data set is classed as functional, organism-based.
The subject of a further data set is Coxsackievirus B4. Kind of data set: Antiviral activity against human coxsackievirus B4. The data set is classed as functional, organism-based.
Where [6] appears, read: Human immunodeficiency virus 1, 3B, CCRF-CEM, read-out: EC50.

Each structure is given as a SMILES string. Activity calls are given as the source filed them. The rule behind the calls is not given here.

Take `O=C(NCCCCNC(=O)c1ccccc1OCc1ccccc1)c1ccccc1OCc1ccccc1`: the EC50 result (in [1] (ccrf-cem); in the data set on Hepatitis C virus; in data set [2] (ccrf-cem)) was “Not Active” each time. Besides, the EC90 entry in the data set on Hepatitis C virus was “inactive”.
In the case of `O=C(NCCCCN(CCCNC(=O)c1ccc(OCc2ccccc2)c(OCc2ccccc2)c1OCc1ccccc1)C(=O)c1ccc(OCc2ccccc2)c(OCc2ccccc2)c1OCc1ccccc1)c1ccc(OCc2ccccc2)c(OCc2ccccc2)c1OCc1ccccc1`, the EC50 result (in data set [1] (ccrf-cem); with Hepatitis C virus; in data set [2] (ccrf-cem)) was “Not Active” in each case. For the same molecule, the EC90 entry in the data set on Hepatitis C virus is “inactive”.
`COc1cc(C(=O)NCCCCCCCCNC(=O)c2cc(OC)c(OC)c(OC)c2)cc(OC)c1OC`: the half-maximal effective concentration (EC50) result (in data set [1] (ccrf-cem); with Hepatitis C virus; in data set [2] (ccrf-cem)) was “Not Active” throughout. Further, the EC90 result in the data set with Hepatitis C virus is “inactive”.
As for `O=C(NCCN(CCNC(=O)c1ccc(OCc2ccccc2)c(OCc2ccccc2)c1OCc1ccccc1)CCNC(=O)c1ccc(OCc2ccccc2)c(OCc2ccccc2)c1OCc1ccccc1)c1ccc(OCc2ccccc2)c(OCc2ccccc2)c1OCc1ccccc1`, the EC50 result (in data set [1] (ccrf-cem); with Hepatitis C virus; in data set [2] (ccrf-cem)) was “Not Active” each time. Further, in the data set with Hepatitis C virus, the EC90 entry was “inactive”.
In the case of `O=C(NCCCCCCCCCCNC(=O)c1ccc(OCc2ccccc2)c(OCc2ccccc2)c1OCc1ccccc1)c1ccc(OCc2ccccc2)c(OCc2ccccc2)c1OCc1ccccc1`, the EC50 result (in [1] (ccrf-cem); in the data set on Hepatitis C virus; in data set [2] (ccrf-cem)) was “Not Active” in each case. For the same molecule, the EC90 result with Hepatitis C virus was “inactive”.
As for `CCCCCCCCOC(=O)c1cc(O)c(O)c(O)c1` [OCTYL_GALLATE], the outcome with Chikungunya virus, with Vaccinia virus, in the data set on Felid alphaherpesvirus 1, in the data set with Sindbis virus, in the data set on Influenza A virus and with Feline coronavirus was inactive. Moreover, the result (in the data set with Human respirovirus 3; in data set [3]; in the data set on Punta Toro virus; with Reovirus sp.; in the data set with Influenza A virus H3N2; in [5]) was inactive. The outcome in the data set with Coxsackievirus B4 was inactive. Moreover, the EC50 is greater than 2 µM in data set [1] (setting [6]) and greater than 2 µM in data set [2] (Human immunodeficiency virus 2, ISOLATE ROD, CCRF-CEM, read-out: EC50). Also, in data set [4], the cytotoxic concentration (CC50) amounted to 11 µM.
Regarding `COc1cc(C(=O)NCCCCN(CCCNC(=O)c2cc(OC)c(OC)c(OC)c2)C(=O)c2cc(OC)c(OC)c(OC)c2)cc(OC)c1OC`, the EC50 entry (in [1] (ccrf-cem); in the data set on Hepatitis C virus; in [2] (ccrf-cem)) was “Not Active” each time. The EC90 result with Hepatitis C virus is “inactive”.
`C[C@H](Cn1cnc2c(N)ncnc21)OCP(=O)(O)O` [TENOFOVIR ANHYDROUS]: the CC50 in data set [4] was greater than 100 µM.
With `O=C(NCCCCNC(=O)c1ccc(OCc2ccccc2)c(OCc2ccccc2)c1OCc1ccccc1)c1ccc(OCc2ccccc2)c(OCc2ccccc2)c1OCc1ccccc1`, the EC50 result (in data set [1] (ccrf-cem); with Hepatitis C virus; in data set [2] (ccrf-cem)) was “Not Active” throughout. For the same molecule, the EC90 result in the data set on Hepatitis C virus was “inactive”.
Turning to `COc1cc(C(=O)NCCN(CCNC(=O)c2cc(OC)c(OC)c(OC)c2)C(=O)c2cc(OC)c(OC)c(OC)c2)cc(OC)c1OC`, the EC50 result (in data set [1] (ccrf-cem); in the data set with Hepatitis C virus; in data set [2] (ccrf-cem)) was “Not Active” in each case. Besides, in the data set on Hepatitis C virus, the EC90 entry was “inactive”.
Regarding `COc1cccc(C(=O)NCCCCCCCCCCCCNC(=O)c2cccc(OC)c2OC)c1OC`, the concentration giving a half-maximal response (EC50) entry (in data set [1] (ccrf-cem); with Hepatitis C virus; in data set [2] (ccrf-cem)) was “Not Active” throughout. The EC90 result in the data set on Hepatitis C virus is “inactive”.
In the case of `O=C(NCCCOCCOCCOCCCNC(=O)c1ccc(OCc2ccccc2)c(OCc2ccccc2)c1OCc1ccccc1)c1ccc(OCc2ccccc2)c(OCc2ccccc2)c1OCc1ccccc1`, the EC50 result (in data set [1] (ccrf-cem); in the data set with Hepatitis C virus; in [2] (ccrf-cem)) was “Not Active” in each case. In the data set with Hepatitis C virus, the EC90 entry was “inactive”.
Take `O=C(NCCCCCCCCCCCCNC(=O)c1ccc(OCc2ccccc2)c(OCc2ccccc2)c1OCc1ccccc1)c1ccc(OCc2ccccc2)c(OCc2ccccc2)c1OCc1ccccc1`: the EC50 entry (in data set [1] (ccrf-cem); in the data set on Hepatitis C virus; in data set [2] (ccrf-cem)) was “Not Active” in each case. Moreover, the EC90 entry in the data set with Hepatitis C virus is “inactive”.
Consider `COc1cc(C(=O)NCCN(CCNC(=O)c2cc(OC)c(OC)c(OC)c2)CCNC(=O)c2cc(OC)c(OC)c(OC)c2)cc(OC)c1OC`, for which the EC50 result (in [1] (ccrf-cem); with Hepatitis C virus; in [2] (ccrf-cem)) was “Not Active” throughout. For the same molecule, in the data set on Hepatitis C virus, the EC90 entry was “inactive”.
As to `COc1cccc(C(=O)NCCCCNC(=O)c2cccc(OC)c2OC)c1OC`, the EC50 entry (in data set [1] (ccrf-cem); in the data set with Hepatitis C virus; in [2] (ccrf-cem)) was “Not Active” throughout. Further, the EC90 result in the data set on Hepatitis C virus was “inactive”.
As to `CN[C@@H]1[C@H](O[C@@H]2OC[C@@H](O)[C@H](O)[C@H]2O)[C@@H](O)[C@H](O[C@H]2c3cc(C)c(C(=O)N[C@H](C)C(=O)O)c(O)c3-c3c(cc4c(c3O)C(=O)c3cc(OC)cc(O)c3C4=O)[C@@H]2O)O[C@@H]1C` [PRADIMICIN A], the EC50 in [1] (setting [6]) is 3.3 µM. Further, in data set [4], the CC50 is greater than 100 µM.
For the molecule `COc1cc(C(=O)NCCCCCCNC(=O)c2cc(OC)c(OC)c(OC)c2)cc(OC)c1OC`, the EC50 result (in data set [1] (ccrf-cem); with Hepatitis C virus; in data set [2] (ccrf-cem)) was “Not Active” throughout. Moreover, the EC90 entry with Hepatitis C virus was “inactive”.
For `O=C(NCCCCCCCCCCCCNC(=O)c1ccccc1OCc1ccccc1)c1ccccc1OCc1ccccc1`, the EC50 entry (in data set [1] (ccrf-cem); with Hepatitis C virus; in [2] (ccrf-cem)) was “Not Active” in each case. The EC90 result in the data set with Hepatitis C virus is “inactive”.
With `COc1cc(C(=O)NCCCCNC(=O)c2cc(OC)c(OC)c(OC)c2)cc(OC)c1OC`, the EC50 result (in data set [1] (ccrf-cem); in the data set with Hepatitis C virus; in data set [2] (ccrf-cem)) was “Not Active” in each case. In addition, the EC90 result with Hepatitis C virus was “inactive”.
In the case of `O=C(NCCCCCCCCNC(=O)c1ccc(OCc2ccccc2)c(OCc2ccccc2)c1OCc1ccccc1)c1ccc(OCc2ccccc2)c(OCc2ccccc2)c1OCc1ccccc1`, the EC50 entry (in data set [1] (ccrf-cem); in the data set on Hepatitis C virus; in [2] (ccrf-cem)) was “Not Active” throughout. Also, in the data set with Hepatitis C virus, the EC90 entry is “inactive”.
Regarding `O=C(NCCCCCCNC(=O)c1ccc(OCc2ccccc2)c(OCc2ccccc2)c1OCc1ccccc1)c1ccc(OCc2ccccc2)c(OCc2ccccc2)c1OCc1ccccc1`, the EC50 result (in data set [1] (ccrf-cem); in the data set on Hepatitis C virus; in data set [2] (ccrf-cem)) was “Not Active” in each case. Moreover, the EC90 result in the data set on Hepatitis C virus was “inactive”.
Regarding `O=C(NCCNC(=O)c1ccccc1OCc1ccccc1)c1ccccc1OCc1ccccc1`, the EC50 result (in [1] (ccrf-cem); in the data set on Hepatitis C virus; in [2] (ccrf-cem)) was “Not Active” throughout. Further, the EC90 result in the data set with Hepatitis C virus was “inactive”.
For the molecule `COc1cc(C(=O)NCCCCCCCCCCNC(=O)c2cc(OC)c(OC)c(OC)c2)cc(OC)c1OC`, the EC50 entry (in data set [1] (ccrf-cem); in the data set with Hepatitis C virus; in data set [2] (ccrf-cem)) was “Not Active” in each case. Further, the EC90 entry in the data set with Hepatitis C virus was “inactive”.
On to `COc1cc(C(=O)NCCN(CCN(CCN(CCNC(=O)c2cc(OC)c(OC)c(OC)c2)C(=O)c2cc(OC)c(OC)c(OC)c2)C(=O)c2cc(OC)c(OC)c(OC)c2)C(=O)c2cc(OC)c(OC)c(OC)c2)cc(OC)c1OC`, for which the EC50 entry (in data set [1] (ccrf-cem); in the data set on Hepatitis C virus; in data set [2] (ccrf-cem)) was “Not Active” throughout. The EC90 result in the data set with Hepatitis C virus is “inactive”.
Regarding `O=C(NCCCCNC(=O)c1cccc(O)c1O)c1cccc(O)c1O`, the result in the data set with Chikungunya virus, with Vaccinia virus, with Felid alphaherpesvirus 1, in the data set with Sindbis virus, with Influenza A virus and in the data set with Feline coronavirus was inactive. For the same molecule, the result (in the data set on Human respirovirus 3; in data set [3]; with Punta Toro virus; in the data set with Reovirus sp.; in the data set on Influenza A virus H3N2; in [5]) was inactive. In the data set on Coxsackievirus B4, the outcome was inactive. Besides, the concentration giving a half-maximal response (EC50) in data set [1] (setting [6]) was greater than 2 µM. Besides, the CC50 in data set [4] is 5.2 µM.
For `COc1cc(C(=O)NCCCCCCCCCCCCNC(=O)c2cc(OC)c(OC)c(OC)c2)cc(OC)c1OC`, the EC50 entry (in data set [1] (ccrf-cem); with Hepatitis C virus; in data set [2] (ccrf-cem)) was “Not Active” in each case. In the data set with Hepatitis C virus, the EC90 result is “inactive”.
`COc1cccc(C(=O)NCCNC(=O)c2cccc(OC)c2OC)c1OC`: the EC50 entry (in data set [1] (ccrf-cem); in the data set with Hepatitis C virus; in data set [2] (ccrf-cem)) was “Not Active” each time. Further, in the data set with Hepatitis C virus, the EC90 entry was “inactive”.
